Measurements: PubChem BioAssay (NCI)
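Assay format: 96-well plates, 48-hour exposure. TGI: concentration producing complete growth inhibition.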 Where a SMILES comes first, the peptide text is derived from it. [ ]: non-standard residue; d: D form. The star is where a group is joined. ξ: configuration not given here. NMeY = CN[C@@H](Cc1ccc(O)cc1)C(=O)O; Cbz = O=C(OCc1ccccc1)*; ξA = CC(N)C(=O)O

Key:
Assay in all cases: NCI tumour cell line growth inhibition, 48 h
M14 melanoma = system: M14 melanoma
OVCAR-4 ovarian = system: OVCAR-4 ovarian
SW-620 colon = system: SW-620 colon
EKVX NSCLC = system: EKVX NSCLC
SK-OV-3 ovarian = system: SK-OV-3 ovarian
MCF7 breast = system: MCF7 breast
DLD-1 colon = system: DLD-1 colon
KM20L2 colon = system: KM20L2 colon
DMS 114 small cell lung = system: DMS 114 small cell lung
LXFL 529 NSCLC = system: LXFL 529 NSCLC

Row | Structure (SMILES) | TGI (M14 melanoma) | TGI (OVCAR-4 ovarian) | TGI (SW-620 colon) | TGI (EKVX NSCLC) | TGI (SK-OV-3 ovarian) | TGI (MCF7 breast) | TGI (DLD-1 colon) | TGI (KM20L2 colon) | TGI (DMS 114 small cell lung) | TGI (LXFL 529 NSCLC)
1 | O=c1[nH][nH]c(=O)n1Cc1ccccc1 | > 100 µM | > 100 µM | > 100 µM | > 100 µM | > 100 µM | > 100 µM | – | – | – | –
2 | O=C1CC(n2ccnc2)c2c(Cl)sc(Cl)c21 (configuration not stated) | 35.3 µM | 42.3 µM | > 33.1 µM | 38.7 µM | > 79.5 µM | 28 µM | – | – | – | –
3 | C1=NN2C(c3ccccc3)=NOC2C2C(c3ccccc3)=NOC12 (configuration not stated) | > 100 µM | – | – | > 100 µM | > 100 µM | > 100 µM | – | – | – | –
4 | CCOC(=O)/C=C(/C(=O)OCC)n1ccc(=O)n(Cc2cn(CCCCOC(C)=O)nn2)c1=O | – | > 100 µM | > 100 µM | > 100 µM | > 100 µM | > 100 µM | – | – | – | –
5 | CN1C(=O)C(=Cc2ccc(Br)cc2)C(=O)N(C)C1=O | > 100 µM | > 100 µM | > 100 µM | > 100 µM | > 100 µM | > 100 µM | – | – | – | –
6 | COC(C)=NCCC1=CCCCC1 | > 100 µM | > 100 µM | > 100 µM | > 100 µM | > 100 µM | > 100 µM | – | – | – | –
7 | c1ccc2c(c1)CCN1CCc3ccccc3C1C2 (configuration not stated) | 82.1 µM | > 100 µM | > 100 µM | > 100 µM | > 100 µM | > 100 µM | – | – | – | –
8 | O=C1CSC(c2ccccc2)N1c1ccc(-c2ccc(-n3c(-c4ccccc4)nc4ccccc4c3=O)cc2)cc1 (configuration not stated) | > 100 µM | > 100 µM | > 100 µM | > 100 µM | > 100 µM | > 100 µM | – | – | – | –
9 | COc1ccccc1N1CCN(S(=O)(=O)c2ccc(Cl)cc2)C1=N | > 100 µM | > 100 µM | > 100 µM | > 100 µM | > 100 µM | > 100 µM | – | – | – | –
10 | COc1ccc(/C=C2/SC(=Nc3ccccc3)N(NC(=O)Cc3ccccc3)C2=O)cc1 | > 100 µM | > 100 µM | > 100 µM | > 100 µM | > 100 µM | > 100 µM | – | – | – | –
11 | COc1ccc(C[C@H]2COC(=O)[C@@H]2Cc2ccc(Br)cc2)cc1OC | > 89.5 µM | > 100 µM | > 100 µM | 56.5 µM | > 100 µM | > 65.4 µM | – | – | – | –
12 | COC(=O)c1cc(/C=C/C(=O)Cc2ccccc2)cn1S(=O)(=O)c1ccccc1 | > 100 µM | > 100 µM | – | > 100 µM | > 100 µM | > 100 µM | – | – | – | –
13 | Cc1cn(C2CC(O)C(Cn3nncc3Cn3cnc4c(N)ncnc43)O2)c(=O)[nH]c1=O (configuration not stated) | > 100 µM | > 100 µM | > 100 µM | > 100 µM | > 100 µM | > 100 µM | – | – | – | –
14 | COc1cc(-c2nc(N)c(C#N)c3c2CCS(=O)(=O)c2ccc(C)cc2-3)cc(OC)c1OC | > 100 µM | > 100 µM | > 100 µM | – | – | – | – | – | – | –
15 | Cc1cc2c(cc1Cl)SC(NNCCO)=NS2(=O)=O | > 100 µM | > 100 µM | > 100 µM | > 100 µM | > 100 µM | > 100 µM | – | – | – | –
16 | CC(C)CCNC(=O)c1ccc(CNC(=O)/C=C/c2ccc3ccccc3c2)cc1 | > 100 µM | > 100 µM | > 100 µM | > 100 µM | > 100 µM | > 100 µM | – | – | – | –
17 | CC1=CC2(C)C=C[C@@H]1C(=O)[C@@]1(C)CC[C@@](O)(C(C)C)[C@H]1CC2 | 35.8 µM | 38.2 µM | 37.7 µM | 63.1 µM | 54.6 µM | 76 µM | – | – | – | –
18 | O=c1ccn(C/C=C/c2ccccc2)c(=S)n1C/C=C/c1ccccc1 | > 100 µM | > 100 µM | > 100 µM | > 100 µM | > 100 µM | > 100 µM | – | – | – | –
19 | CCOC(=O)/C(=C\c1c[nH]c2ccccc12)P(=O)(OCC)OCC | > 100 µM | 89.4 µM | > 100 µM | > 100 µM | 90.4 µM | > 100 µM | – | – | – | –
20 | CN(C)c1n2c3ccc([N+](=O)[O-])cc3n3c(N(C)C)[n+]4ccccc4c3c2c2cccc[n+]12 | > 100 µM | > 100 µM | > 100 µM | > 100 µM | > 100 µM | > 100 µM | – | – | – | –
21 | COc1ccc(C[C@@H](C(=O)N[C@@H](C)C(N)=O)N(C)C(=O)[C@@H]2CCCN2C(=O)[C@H](CC(C)C)NC(=O)C(C)NC(=O)OCc2ccccc2)cc1 (some centres not stated) (Cbz-[ξA]LP[NMeY](Me)A-NH2) | > 100 µM | > 100 µM | > 100 µM | > 100 µM | > 100 µM | > 100 µM | – | – | – | –
22 | Cc1c(-c2coc(-c3ccc([N+](=O)[O-])cc3)n2)c(=O)n(-c2ccccc2)n1C | > 100 µM | > 100 µM | – | > 100 µM | > 100 µM | – | > 100 µM | > 100 µM | > 100 µM | > 100 µM
23 | CC(=O)Oc1ccc2c(c1)[nH]c1c3ccc(OC(C)=O)cc3oc(=O)c21 | > 100 µM | > 100 µM | > 100 µM | 86.1 µM | > 100 µM | 90.4 µM | – | – | – | –
24 | Nc1c(F)c(F)c2c(c1F)N(CCCCCl)c1ccccc1S2 | > 100 µM | > 100 µM | > 100 µM | – | > 100 µM | > 100 µM | – | – | – | –
25 | CC1(C)N=C(C(N)=O)c2ncn(Cc3ccccc3)c2N1 | > 100 µM | > 100 µM | > 100 µM | > 100 µM | > 100 µM | > 100 µM | – | – | – | –
26 | C=C1N(C)c2ccc(S(=O)(=O)c3ccc4c(c3)C(C)(C)C(=C)N4C)cc2C1(C)C | > 100 µM | > 100 µM | > 100 µM | > 100 µM | > 100 µM | > 100 µM | – | – | – | –
27 | COc1ccc2nc3cccc([N+](=O)[O-])c3c(NCCC(=O)O)c2c1 | > 10 µM | > 10 µM | > 10 µM | > 10 µM | > 10 µM | > 10 µM | – | – | – | –
28 | CC(CC(=O)N1C2CC3CCC2(CS1(=O)=O)C3(C)C)[Si](C)(C)C (configuration not stated) | > 100 µM | – | > 100 µM | > 100 µM | – | > 100 µM | – | – | – | –
29 | OC1C2CCCCN2C[C@@H](O)[C@H]1O (some centres not stated) | > 100 µM | > 100 µM | > 100 µM | > 100 µM | > 100 µM | > 100 µM | – | – | – | –
30 | Cc1ccc(NC(=O)c2cccc(OP(=O)(Nc3ccc(C)cc3)Nc3ccc(C)cc3)c2)cc1 | 9.08 µM | 61.9 µM | > 100 µM | > 100 µM | > 100 µM | > 100 µM | – | – | – | –
